Data taken from patent publication US20020064847A1, “NOVEL SECONDARY ALCOHOL DEHYDROGENASE, PROCESS FOR PREPARING SAID ENZYME, AND PROCESS FOR PREPARING ALCOHOLS AND KETONES USING SAID ENZYME” (priority 1996, published 2002).
Entries after “also recorded” stand apart in the source; their conditions may differ. Where two headings read alike, the source gives them in different places.

Experiments:
[1] = test system: secondary alcohol dehydrogenase; test: Substrate specificity, oxidation reaction; format: biochemical, Geotrichum candidum IFO 4601; conditions: coenzyme NAD+, (S)-1,3-butanediol-oxidizing activity = 100
Protocol: (§1) In the present invention, secondary alcohol dehydrogenase activity was determined by allowing the enzyme to react in the reaction mixture containing potassium phosphate buffer (pH 8.0, 50 μmol), 2.5 μmol NAD^+, and 50μmol (S)-1,3-butanediol at 30° C. and measuring an increase of absorbance at 340 nm resulting from generation of NADH. One unit was defined as the amount of enzyme catalyzing generation of 1μmol of NADH per minute.
(§2) The secondary alcohol dehydrogenase was reacted with various alcohols and aldehydes. Its oxidation and reduction activities are shown in Table 1 as relative activities to (S)-1,3-butanediol-oxidizing activity and 4-hydroxy-2-butanone-reducing activity that are taken as 100.

[2] = test system: secondary alcohol dehydrogenase; test: Behavior of the secondary alcohol dehydrogenase to inhibitors (residual activity); format: biochemical, Geotrichum candidum IFO 4601; conditions: for Residual activity: 30° C. for 10 minutes
Protocol: as §1
The secondary alcohol dehydrogenase was treated with various reagents at 30° C. for 10 minutes.

[3] = test system: secondary alcohol dehydrogenase; test: Substrate specificity, reduction reaction; format: biochemical, Geotrichum candidum IFO 4601; conditions: 4-hydroxy-2-butanone-reducing activity = 100
Protocol: The secondary alcohol dehydrogenase was examined for its activity of oxidation of (S)-1,3-butanediol and that of reduction of 4-hydroxy-2-butanone [which was measured under the same conditions as those used for measuring activity of oxidation of (S)-1,3-butanediol except for using NADH (0.4 μmol) instead of NAD^+] at different pHs using potassium-phosphate buffer (KPB), Tris-HCl buffer and Britten-Robinson buffer by measuring the decrease of absorbance at 340 nm accompanied with reduction of the amount of NADH. The activity is shown in FIGS. 3 and 4 as relative activity with taking the maximal activity as 100. The optimum pH in the reaction was 8.0-9.0 in the case of the oxidation of (S)-1,3-butanediol (FIG. 3) and 7.0 in the case of the reduction of 4-hydroxy-2-butanone (FIG. 4).
as §2

[4] = test system: secondary alcohol dehydrogenase; test: Substrate specificity, oxidation reaction; format: biochemical, Geotrichum candidum IFO 4601; conditions: substrate 50 mM, coenzyme NADP+, (S)-1,3-butanediol-oxidizing activity = 100
[5] = test system: secondary alcohol dehydrogenase; test: Enzyme kinetic analysis; format: biochemical, Geotrichum candidum IFO 4601
Protocol: as §1
The reaction rate constants of the purified secondary alcohol dehydrogenase to the following substrates were measured.

[6] = biological target: primary alcohol dehydrogenase (SADH 1) (Saccharomyces cerevisiae, UniProt P00330); conditions: SADH 1 from Saccharomyces cerevisiae; cited from earlier work
Chain of primary alcohol dehydrogenase (SADH 1) (P00330 whole entry): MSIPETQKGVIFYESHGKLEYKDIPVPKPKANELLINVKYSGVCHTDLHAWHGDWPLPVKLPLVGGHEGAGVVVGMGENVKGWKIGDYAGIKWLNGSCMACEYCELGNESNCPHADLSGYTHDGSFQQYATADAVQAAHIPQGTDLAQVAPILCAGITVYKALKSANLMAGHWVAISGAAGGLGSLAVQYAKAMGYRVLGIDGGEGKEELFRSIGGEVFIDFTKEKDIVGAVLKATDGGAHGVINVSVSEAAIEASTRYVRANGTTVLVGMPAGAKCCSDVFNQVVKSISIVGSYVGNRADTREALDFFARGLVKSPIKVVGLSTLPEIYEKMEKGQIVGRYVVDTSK

[7] = substrate 100 mM, coenzyme NADH

1-butanol
Relative activity ([1]; substrate 100 mM): 12.9%

1-propanol
Relative activity ([1]; substrate 100 mM): 15.5%

O[C@H](CS)[C@H](O)CS (racemic) [dithiothreitol]
Residual activity ([2]; inhibitor 1.0 mM): 42.9%

CCC(C)=O [2-butanone]
Relative activity [3, 7]: 20.2%

OCCS [2-mercaptoethanol]
Inhibition of the enzyme (in words) [2]: markedly inhibited | Residual activity ([2]; inhibitor 0.01 mM): 6.8% | Inhibition of the enzyme (in words) ([2]; listed as 2-mercaptethanol): inhibited

CC(C)O [2-propanol]
Relative activity ([1]; substrate 100 mM): 96.8%

CC(=O)CCO [4-hydroxy-2-butanone]
Relative activity ([3]; substrate 20 mM, coenzyme NADH): 100% | Relative activity ([3]; substrate 20 mM, coenzyme NADPH): 0%

C[C@@H](O)CO [(R)-1,2-propanediol]
Relative activity ([1]; substrate 50 mM): 10.4%

C[C@@H](O)CCO [(R)-1,3-butanediol]
Relative activity [4]: 8.8% | E value ([5]; (S)- versus (R)-1,3-butanediol): 33.0 | Vmax ([5]; purified enzyme): 4.43 U/mg of protein

C[C@@H](O)c1ccccc1 [(R)-1-phenylethanol]
Relative activity ([1]; substrate 50 mM): 19.2%

CCCCCC[C@@H](C)O [(R)-2-octanol]
Relative activity ([1]; substrate 5 mM): 13.3%

C[C@H](O)CO [(S)-1,2-propanediol]
Relative activity ([1]; substrate 50 mM): 23.8%

C[C@H](O)CCO [(S)-1,3-butanediol]
Relative activity [4]: 2.4% | Km ([5]; purified enzyme): 41.4 mM | Vmax ([5]; purified enzyme): 36.7 U/mg of protein | Relative activity ([1]; substrate 50 mM): 100%

C[C@H](O)c1ccccc1 [(S)-1-phenylethanol]
Relative activity ([1]; substrate 50 mM): 267%

CCCCCC[C@H](C)O [(S)-2-octanol]
Relative activity ([1]; substrate 5 mM): 187%

CC(C)=O [acetone]
Relative activity [3, 7]: 164%

CC(=O)c1ccccc1 [acetophenone]
Relative activity ([3]; substrate 20 mM, coenzyme NADH): 122%

C=CCO [allyl alcohol]
Relative activity ([1]; substrate 100 mM): 18.7%

[Cl][Co][Cl] [cobalt chloride]
Residual activity ([2]; inhibitor 1.0 mM): 81.0%

O=S(=O)([O-])[O-].[Cu+2] [copper sulfate]
Residual activity ([2]; inhibitor 1.0 mM): 71.5%

OC1CCCCC1 [cyclohexanol]
Relative activity ([1]; substrate 20 mM): 90.4%

CCO [ethanol]
Relative activity ([1]; substrate 100 mM): 10.7%

CCOC(=O)CC(C)=O [ethyl acetoacetate]
Relative activity [3, 7]: 96.8%

O=C(O)CN(CCN(CC(=O)O)CC(=O)O)CC(=O)O [ethylenediaminetetraacetic acid]
Inhibition of the enzyme (in words) [2]: inhibited | Residual activity ([2]; inhibitor 1.0 mM): 63.5% | Residual activity ([2]; inhibitor 10 mM): 9.8%

OCC(O)CO [glycerol]
Relative activity ([1]; substrate 50 mM): 0%

NC(=O)CI [iodoacetamide]
Inhibition of the enzyme (in words) [2]: perfectly inhibited; also recorded: markedly inhibited | Residual activity ([2]; inhibitor 1.0 mM): 2.4%

[Cl][Hg][Cl] [mercuric chloride]
Inhibition of the enzyme (in words) [2]: markedly inhibited | Residual activity ([2]; inhibitor 1.0 mM): 0.0% | Inhibition of the enzyme (in words) ([2]; listed as mercury chloride): inhibited

CO [methanol]
Relative activity ([1]; substrate 100 mM): 60.8%

COC(=O)C[C@@H](C)O [methyl (R)-3-hydroxybutyrate]
Relative activity ([1]; substrate 50 mM): 22.1%

COC(=O)C[C@H](C)O [methyl (S)-3-hydroxybutyrate]
Relative activity ([1]; substrate 50 mM): 138%

O=C(O)c1cc[c]([Hg][Cl])cc1 [p-chloromercuribenzoic acid]
Inhibition of the enzyme (in words) [2]: perfectly inhibited | Residual activity ([2]; inhibitor 0.05 mM): 0.0% | Inhibition of the enzyme (in words) ([2]; listed as parachloromercuribenzoic acid): markedly inhibited

[Cl-].[Cl-].[Zn+2] [zinc chloride]
Inhibition of the enzyme (in words) [2]: markedly inhibited | Residual activity ([2]; inhibitor 10 mM): 0.9%

(R)-2-butanol
Relative activity ([1]; substrate 50 mM): 60.0%

(RS)-2-butanol
Activity relative to ethanol [6]: approximately 1% | Relative activity ([1]; substrate 100 mM): 85.9%

(S)-2-butanol
Relative activity ([1]; substrate 50 mM): 112%
